Experimental data taken from patent US12268723B2, “Peptidomimetics for the treatment of coronavirus and picorna virus infections” (priority 2019, dated 2025).

Legend:
[1] = Cytotoxicity (MTS) in RD cells; assay type: cell-based, human; conditions: human, RD (rhabdomyosarcoma) cells
Method: Compounds are tested for cytotoxicity using a MTS (3-(4,5-dimethylthiazol-2-yl)-5-(3-carboxymethoxyphenyl)-2-(4-sulfophenyl)-2H-tetrazolium) method and the CC50 (IC50) values (cytotoxic concentrations of drug required to reduce cell viability by 50%) are determined for each test compound in human rhabdomyosarcoma (RD) cell line. In addition, the maximum non-toxic concentrations (MNTC) are also determined for each compound. To avoid potential drug toxicity that would interfere with viral cytopathic effect (CPE), compounds are evaluated at nontoxic concentrations. The resultant inhibitory effect of each test compound is calculated as a percentage of decrease in EV-71 CPE. Briefly, a monolayer of RD cells is prepared in a 96-well plates. The cells are then infected with 1 MOI of EV-71 (BrCr strain) followed by treatment with a single non-toxic dose of each compound in triplicate. The vehicle control wells are treated with 0.1% DMSO diluted in the working media. […] The dose-response antiviral activity of each compound is determined by a virus yield reduction assay method. Briefly, confluent monolayers of RD cells in 96-wells microplate are infected with 0.1 MOI of EV-71 followed by treatment with compounds. […] Quantitative PCR measurement was performed using StepOnePlus real time PCR system ([…]) according to manufacturer's protocol.

[2] = system: Enterovirus EV-71 (BrCr strain); test: Anti-enterovirus activity, EV-71 virus yield reduction (qRT-PCR) in RD cells; assay type: cell-based; conditions: for EC50 / EC90: RD, 48 h, 0.1 MOI, 2 days post-treatment; for EC50: read-out: EC50 against Enterovirus EV-71 (BrCr strain); for EC90: read-out: EC90 against Enterovirus EV-71 (BrCr strain); for IC50: given as IC50, read-out: IC50 against Enterovirus EV-71 (BrCr strain); for IC90: given as IC90, read-out: IC90 against Enterovirus EV-71 (BrCr strain)
Method: Compounds are tested for cytotoxicity using a MTS (3-(4,5-dimethylthiazol-2-yl)-5-(3-carboxymethoxyphenyl)-2-(4-sulfophenyl)-2H-tetrazolium) method and the CC50 (IC50) values (cytotoxic concentrations of drug required to reduce cell viability by 50%) are determined for each test compound in human rhabdomyosarcoma (RD) cell line. In addition, the maximum non-toxic concentrations (MNTC) are also determined for each compound. To avoid potential drug toxicity that would interfere with viral cytopathic effect (CPE), compounds are evaluated at nontoxic concentrations. The resultant inhibitory effect of each test compound is calculated as a percentage of decrease in EV-71 CPE. Briefly, a monolayer of RD cells is prepared in a 96-well plates. The cells are then infected with 1 MOI of EV-71 (BrCr strain) followed by treatment with a single non-toxic dose of each compound in triplicate. The vehicle control wells are treated with 0.1% DMSO diluted in the working media. The plate is then incubated for 48 h at which time the virus-control wells produced detectable CPE. To determine the probable CPE inhibitory effect of test compounds, an MTS assay is performed and effective compounds are chosen for further studies to identify the potency of the compounds and their concentration-dependent manner. The dose-response antiviral activity of each compound is determined by a virus yield reduction assay method. Briefly, confluent monolayers of RD cells in 96-wells microplate are infected with 0.1 MOI of EV-71 followed by treatment with compounds. Effective compounds are further quantified and confirmed with a virus-yield-reduction assay using an optimized in house qRT-PCR to determine the EV-71 RNA copy number after 2 days post-treatment from collected supernatants. qRT-PCR is performed using the EV-71 specific probe/primer mix and qScript-Tough master mix (Quantibio, USA). Quantitative PCR measurement was performed using StepOnePlus real time PCR system ([…]) according to manufacturer's protocol. The median effective concentration (EC50) and the concentration with 90% of inhibitory effect (EC90) are calculated using GraphPad PRISM for Windows, version 5 (GraphPad Software Inc., San Diego, CA, 2005) as the means±standard deviation (SD) of the mean from triplicate assay from three independent experiments.

For `CC(C)C[C@H](NC(=O)[C@H](Cc1ccc(O)cc1)NC(=O)OCc1ccccc1)C(=O)N[C@H](C=O)C[C@@H]1CCCNC1=O`, the CC50 [1] was > 100000 nM, the EC50 [2] was 190 nM and the EC90 [2] was 360 nM.
With `CC(C)C[C@H](NC(=O)OCc1ccccc1)C(=O)NC(C=O)C[C@@H]1CCCNC1=O` (stereo partly drawn) the CC50 [1] was > 100000 nM, the EC50 [2] was 50 nM and the EC90 [2] was 130 nM.
Work on `COC(=O)C1O[C@@H]1[C@H](C[C@@H]1CCNC1=O)NC(=O)[C@H](CC(C)C)NC(=O)[C@H](Cc1cccc2ccccc12)NC(=O)OCc1ccccc1` (stereo partly drawn) yielded a CC50 [1] of 80200 nM, an EC50 [2] of 190 nM and an EC90 [2] of 360 nM.
With `CC(C)C[C@H](NC(=O)[C@H](Cc1cccc2ccccc12)NC(=O)OCc1ccccc1)C(=O)N[C@H](C=O)C[C@@H]1CCNC1=O` the CC50 [1] was > 100000 nM, the EC50 [2] was 90 nM and the EC90 [2] was 260 nM.
In the case of `CC(C)C[C@H](NC(=O)[C@H](Cc1ccc(F)cc1)NC(=O)c1cnccn1)C(=O)N[C@H](C=O)C[C@@H]1CCNC1=O`, the CC50 [1] is reported as > 100000 nM, the IC50 [2] is reported as 90 nM and the IC90 [2] is reported as 570 nM.
In the case of `CC(C)C[C@H](NC(=O)[C@H](Cc1cccc2ccccc12)NC(=O)OCc1ccccc1)C(=O)N[C@@H](CC1CCNC1=O)[C@H]1O[C@@H]1S(C)(=O)=O` (stereo partly drawn), the CC50 [1] is reported as > 100000 nM, the EC50 [2] is reported as 1440 nM and the EC90 [2] is reported as 5020 nM.
Work on `CC(C)C[C@H](NC(=O)[C@H](Cc1cccc2ccccc12)NC(=O)OCCc1ccccc1)C(=O)N[C@H](C=O)C[C@@H]1CCNC1=O` yielded a CC50 [1] of 42500 nM, an EC50 [2] of 750 nM and an EC90 [2] of 2110 nM.
In the case of `CC(C)C[C@H](NC(=O)[C@H](Cc1ccc(O)cc1)NC(=O)OCc1ccccc1)C(=O)N[C@H](C=O)CC1CCNC1=O` (stereo partly drawn), the CC50 ([1]; unit inferred) is reported as > 100000 nM, the EC50 [2] is reported as 2300 nM and the EC90 [2] is reported as 4800 nM.
For `CC(C)C[C@H](NC(=O)[C@H](Cc1ccc(F)cc1)NC(=O)c1cnccn1)C(=O)N[C@H](C=O)C[C@@H]1CCCNC1=O`, the CC50 [1] was > 100000 nM, the EC50 [2] was 280 nM and the EC90 [2] was 570 nM.
For `CC(C)C[C@H](NC(=O)[C@H](Cc1ccc(F)cc1)NC(=O)OCc1ccccc1)C(=O)N[C@H](C=O)C[C@@H]1CCNC1=O`, the CC50 [1] was > 100000 nM, the EC50 [2] was 30 nM and the EC90 [2] was 60 nM.
With `Cc1cc(C(=O)N[C@@H](CC(C)C)C(=O)N[C@H](C=O)C[C@@H]2CCCNC2=O)no1` the CC50 [1] was > 100000 nM, the EC50 [2] was 1100 nM and the EC90 [2] was 4000 nM.
With `CC(C)C[C@H](NC(=O)[C@@H](Cc1cccc2ccccc12)NC(=O)OCc1ccccc1)C(=O)N[C@H](C=O)C[C@@H]1CCCNC1=O` the CC50 [1] was 32500 nM, the IC50 [2] was 8.8 nM and the IC90 [2] was 30 nM.
